Assay results reported in PMC12435445, “Crown Ether–Peptide Rotaxanes” (Angewandte Chemie (International Ed. in English), 2025).

Test: Stability of rotaxane positional isomers to heating or standing, followed by 1H NMR
Type: physicochemical
Protocol: The properties of the 1:0:0‐, 0:1:0‐ and 0:0:1‐diastereomers of 24C8⊂16 were probed using a range of spectroscopic and spectrometric techniques. No change in the ^1H NMR spectra of the rotaxane positional isomers occurred upon heating at 70 °C in DMSO‐d6 for 2 h, or after prolonged periods at room temperature. […] When compared to the noninterlocked thread peptide 16; significant downfield shifts are observed for Hb in 1:0:0–24C8⊂16 (ΔδHb = +0.45 ppm), Hh in 0:1:0–24C8⊂16 (ΔδHh = +0.30 ppm) and Hq in 0:0:1–24C8⊂16 (ΔδHq = +0.21 ppm). The protons associated with the encapsulated glycine residue are also downshifted (protons Hf, Ho and Hu, in 1:0:0–24C8⊂16, 0:1:0–24C8⊂16 and 0:0:1–24C8⊂16, respectively). Substantial upfield shifts for the amide protons Ha, He, Hg, Hn (ΔδH = −0.78, −0.43, −0.40, and −0.49 ppm) in 1:0:0–24C8⊂16, Hg, Hn, Hp, and Ht in 0:1:0–24C8⊂16 (ΔδH = −0.26, −0.48, −0.45, and −0.44 ppm), and Hp, Ht and Hv (ΔδH = −0.33, −0.44, and −0.63 ppm) in 0:0:1–24C8⊂16 indicate that the crown ether also interacts with the amide group of the C‐adjacent residue. As in the tripeptide rotaxanes 24C8⊂4–14, the diastereotopic splitting for the encapsulated glycine methylene becomes more pronounced, as do the protons of the leucine residue (Hd), within 1:0:0–24C8⊂16. The presence of the macrocycle reduces the rotation of nearby amides within the compartment it occupies.

Substance: Boc‐Leu‐Gly‐Trp‐Gly‐Tyr(TIPS)‐Gly‐Phe‐OMe [1:0:0–24C8⊂16, 24C8 crown ether–heptapeptide [2]rotaxane, ring on left‐hand glycine between Boc‐Leu and Trp of axle 16]
- change in the 1H NMR spectra (interconversion of positional isomers or dethreading of macrocycle) (heating at 70 °C in DMSO-d6 for 2 h): No change
- change in the 1H NMR spectra (interconversion of positional isomers or dethreading of macrocycle) (prolonged periods at room temperature): No change
